Here are results for 14 molecules from patent US8835458B2 (Hanmi Science Co., Ltd, priority 2010, dated 2014).

Data set [1] is described as follows: Toxicity to normal cells (SRB). The class given is cell-based, mouse. Conditions: mouse, Balb/c3t3 fibroblasts (normal cell line), read-out: BalB/C (GI50). As for the experimental part: (§1) MDA-MB-231 breast cancer cell lines (ATCC #HTB-26) and BxPC-3 pancreas cancer cell lines (ATCC #CRL 1687), which have been reported to express XIAP, were obtained from ATCC (American type culture collection; Rockville, Md.). MDA-MB-231 cell lines were incubated in L-15 medium supplemented with 10% FBS and 1% penicillin/streptomycin (Gibco BRL) at a T-75 cm^2 growth flask. In addition, BxPC-3 cell lines were incubated in RPMI medium supplemented with 10% FBS and 1% penicillin/streptomycin. For experiments of toxicity to normal cells, fibroblasts Hs27 (ATCC #CRL 1634) and Balb/c3t3 (ATCC #CCL 163) were used. The various cell lines were transferred into 96-well plates at a density of 3,000˜5,000 cells/100 μL, and cultured for 24 hours under conditions of 37° C., 5% CO2, 95% air, and 100% relative humidity (MDA-MB-231 cells were cultured under atmospheric conditions). The cells were treated with 10 μM˜0.1 nM of test compounds, and MDA-MB-231, BxPC-3, and normal cell lines were cultured for 120, 96, and 72 hours, respectively.
(§2) Cell viabilities of MDA-MB-231 cell lines were measured at an absorbance of 490 nm using CellTiter 96™ AQueous One Solution Cell proliferation Assay (MTS, Promega), and cell viabilities of BxPC-3 and normal cell lines were measured by fixing cells with 10% TCA (trichloroacetic acid), staining with SRB (sulforhodamine B), and measuring at 540 nm. From the values, GI50 values in which test compounds reduce the growth of cancer cells by 50% were calculated. The growth rates of cancer cells were calculated from following Equation 1 or 2. [(Ti−Tz)/(C−Tz)]×100 (for Ti>=Tz) [Equation 1] [(Ti−Tz)/Tz]×100 (for Ti<Tz) [Equation 2] In Equations 1 and 2, Tz refers to a density of untreated cells, which is an absorbance in 0% cell growth groups. C refers to a density of cells cultured by adding only medium, and Ti refers to a density of cells treated with test compounds.
(§3) GI50 value is the concentration of a test compound when the value of Equation 1 is 50, which indicates the concentration of test compound required to inhibit the cancer cells by 50%. On each measurement, test compounds were compared with a control.
(§4) The activity value of each compound (GI50 value) was shown in Table 5, and an IAP antagonist was used as a control.
(§5) In the activity measurement on MDA-MB-231 breast cancer cell lines, the values were represented as “***” for 100 nM or less, “**” for over 100 nM to below 1,000 nM, and “*” for 1,000 nM or more. In the measurement on normal cell lines, Balb/C and Hs27, the values were represented as “+++” for 10,000 nM or more, “++” for over 5,000 nM to below 10,000 nM, and “+” for 5,000 nM or less.

Data set [2] relates to MDA-MB-231 breast cancer cell lines. The data set can be described thus: Evaluation of inhibition on cell growth (MTS). Format: cell-based. Particulars: Homo sapiens, MDA-MB-231, 120 hours. As for the experimental part: as §1, §2, §3, §4, §5
A short description of data set [3]: Toxicity to normal cells (SRB). The class given is cell-based, human. Conditions: human, Hs27 fibroblasts (normal cell line). The procedure:
as §1, §2, §3, §4, §5

SMILES strings stand for the structures. Where a name gives a salt, the structure may show the parent alone. Read-outs that look alike come from different tables or passages of the source.

For the molecule `CN[C@@H](C)C(=O)N[C@H](C(=O)N1CCC[C@H]1C(=O)Nc1cc2c(Nc3c(Cl)ccc4c3OCO4)ncnc2cc1OCCOC)C(C)(C)C` [Example 3, ((S)—N-(4-(5-chlorobenzo[d][1,3]dioxol-4-ylamino)-7-(2-methoxyethoxy)quinazolin-6-yl)-1-((S)-3,3-dimethyl-2-((S)-2-(methylamino)propanamido)butanoyl)pyrrolidine-2-carboxamide hydrochloride], the GI50 at 72 h in data set [1] and in data set [3] was more than 10 µM in each case. Besides, in data set [2], the GI50 fell in the range of 0.1 to 1 µM.

Regarding `CN[C@@H](C)C(=O)N[C@H](C(=O)N1CCC[C@H]1C(=O)Nc1ccc2ncnc(Nc3cccc(Cl)c3F)c2c1)C(C)(C)C` [Example 4, (S)—N-(4-(3-chloro-2-fluorophenylamino)quinazolin-6-yl)-1-((S)-3,3-dimethyl-2-((S)-2-(methylamino)propanamido)butanoyl)pyrrolidine-2-carboxamide hydrochloride], the GI50 at 72 h in data set [1] and in data set [3] was more than 10 µM throughout. In addition, the GI50 in data set [2] lay within 0.1 to 1 µM.

Consider `CN[C@@H](C)C(=O)N[C@H](C(=O)N1CCC[C@H]1C(=O)Nc1cc2c(Nc3ccc(F)c(Cl)c3)ncnc2cc1OCCOC)C(C)(C)C` [Example 5, (S)—N-(4-(3-chloro-4-fluorophenylamino)-7-(2-methoxyethoxy)quinazolin-6-yl)-1-((S)-3,3-dimethyl-2-((S)-2-(methylamino)propanamido)butanoyl)pyrrolidine-2-carboxamide hydrochloride], for which the GI50 at 72 h in data set [1] and in data set [3] was more than 10 µM in each case. For the same molecule, the GI50 in data set [2] lay in the range of 0.1 to 1 µM.

As for `CN[C@@H](C)C(=O)N[C@H](C(=O)N1CCC[C@H]1C(=O)Nc1cc2c(Nc3ccc(F)c(Cl)c3F)ncnc2cc1OCCOC)C(C)(C)C` [Example 6, (S)—N-(4-(3-chloro-2,4-difluorophenylamino)-7-(2-methoxyethoxy)quinazolin-6-yl)-1-((S)-3,3-dimethyl-2-((S)-2-(methylamino)propanamido)butanoyl)pyrrolidine-2-carboxamide hydrochloride], the GI50 at 72 h in data set [1] and in data set [3] was more than 10 µM throughout. The GI50 in data set [2] lay in the range of 0.1 to 1 µM.

Regarding `CN[C@@H](C)C(=O)N[C@H](C(=O)N1CCC[C@H]1C(=O)Nc1cc2c(Nc3cccc(Cl)c3F)ncnc2cc1OC)C(C)(C)C.Cl` [Example 7, hydrochloride], the GI50 at 72 h in data set [1] and in data set [3] was more than 10 µM in each case. The GI50 in data set [2] was not above 0.1 µM.

For the molecule `COc1cc2ncnc(Nc3ccc(F)c(Cl)c3F)c2cc1NC(=O)[C@@H]1CCCN1C(=O)[C@@H](NC(=O)[C@H](C)N)C(C)(C)C` [Example 12, (S)-1-((S)-2-((S)-2-aminopropanamido)-3,3-dimethylbutanoyl)-N-(4-(3-chloro-2,4-difluorophenylamino)-7-methoxyquinazolin-6-yl)pyrrolidine-2-carboxamide hydrochloride], the GI50 at 72 h in data set [1] and in data set [3] was more than 10 µM throughout. Moreover, the GI50 in data set [2] was not below 1 µM.

With `C=CC(=O)N[C@@H](C)C(=O)N[C@H](C(=O)N1CCC[C@H]1C(=O)Nc1cc2c(Nc3ccc(F)c(Cl)c3F)ncnc2cc1OC)C(C)(C)C` [Example 13, (S)-1-((S)-2-((S)-2-acrylamidopropanamido)-3,3-dimethylbutanoyl)-N-(4-(3-chloro-2,4-difluorophenylamino)-7-methoxyquinazolin-6-yl)pyrrolidine-2-carboxamide hydrochloride], the GI50 at 72 h in data set [1] and in data set [3] was more than 10 µM throughout. In data set [2], this molecule showed a GI50 not below 1 µM.

`CN[C@@H](C)C(=O)N[C@H](C(=O)N1CCC[C@H]1C(=O)Nc1cc2c(Nc3ccc(F)c(Cl)c3F)ncnc2cc1O[C@H]1CCOC1)C(C)(C)C` [Example 14, (S)—N-(4-(3-chloro-2,4-difluorophenylamino)-7-((S)-tetrahydrofuran-3-yloxy)quinazolin-6-yl)-1-((S)-3,3-dimethyl-2-((S)-2-(methylamino)propanamido)butanoyl)pyrrolidine-2-carboxamide hydrochloride]: the GI50 at 72 h in data set [1] and in data set [3] was more than 10 µM each time. Further, the GI50 in data set [2] was not above 0.1 µM.

Take `CN[C@@H](C)C(=O)N[C@H](C(=O)N1CCC[C@H]1C(=O)Nc1cc2c(Nc3ccc(F)c(Cl)c3F)ncnc2cc1O[C@@H]1CCOC1)C(C)(C)C` [Example 16, (S)—N-(4-(3-chloro-2,4-difluorophenylamino)-7-((R)-tetrahydrofuran-3-yloxy)quinazolin-6-yl)-1-((S)-3,3-dimethyl-2-((S)-2-(methylamino)propanamido)butanoyl)pyrrolidine-2-carboxamide hydrochloride]: the GI50 at 72 h in data set [1] and in data set [3] was more than 10 µM in each case. This molecule displayed a GI50 in data set [2] of 0.1 to 1 µM.

As to `CN[C@@H](C)C(=O)N[C@H](C(=O)N1CC[C@H]1C(=O)Nc1cc2c(Nc3ccc(F)c(Cl)c3F)ncnc2cc1OC)C(C)(C)C` [Example 20, (S)—N-(4-(3-chloro-2,4-difluorophenylamino)-7-methoxyquinazolin-6-yl)-1-((S)-3,3-dimethyl-2-((S)-2-(methylamino)propanamido)butanoyl)azetidine-2-carboxamide hydrochloride], the GI50 at 72 h in data set [1] and in data set [3] was more than 10 µM throughout. The GI50 in data set [2] was in the range of 0.1 to 1 µM.

In the case of `CN[C@@H](C)C(=O)N[C@H](C(=O)N1CCC[C@H]1C(=O)Nc1cc2c(Nc3ccc(N4CCN(C5CCN(C)CC5)CC4)cc3)ncnc2cc1OC)C(C)(C)C` [Example 110, hydrochloride], the GI50 in data set [2] was not above 0.1 µM. The GI50 at 72 h in data set [3] is more than 10 µM.

On to `CN[C@@H](C)C(=O)N[C@H](C(=O)N1CCC[C@H]1C(=O)Nc1cc2c(Nc3ccc(Cn4ccnc4)cc3)ncnc2cc1OC)C(C)(C)C` [Example 111, (S)—N-(4-((4-((1H-imidazol-1-yl)methyl)phenyl)amino)-7-methoxyquinazolin-6-yl)-1-((S)-3,3-dimethyl-2-((S)-2-(methylamino)propanamido)butanoyl)pyrrolidine-2-carboxamide hydrochloride], for which the GI50 in data set [2] fell in the range of 0.1 to 1 µM. Besides, the GI50 at 72 h in data set [3] is more than 10 µM.

In data set [2], `CN[C@@H](C)C(=O)N[C@H](C(=O)N1CCC[C@H]1C(=O)Nc1cc2c(Nc3ccc(N4CCN(C)CC4)c(F)c3)ncnc2cc1OC)C(C)(C)C` [Example 112, (S)-1-((S)-3,3-dimethyl-2-((S)-2-(methylamino)propanamido)butanoyl)-N-(4-((3-fluoro-4-(4-methylpiperazin-1-yl)phenyl)amino)-7-methoxyquinazolin-6-yl)pyrrolidine-2-carboxamide] came in with a GI50 not above 0.1 µM. Further, the GI50 at 72 h in data set [3] was more than 10 µM.

For the molecule `CN[C@@H](C)C(=O)N[C@H](C(=O)N1CCC[C@H]1C(=O)Nc1cc2c(Nc3ccc(N4CCCC4)c(Cl)c3)ncnc2cc1OC)C(C)(C)C` [Example 113, (S)—N-(4-((3-chloro-4-(pyrrolidin-1-yl)phenyl)amino)-7-methoxyquinazolin-6-yl)-1-((S)-3,3-dimethyl-2-((S)-2-(methylamino)propanamido)butanoyl)pyrrolidine-2-carboxamide], in data set [2], the GI50 is not above 0.1 µM. For the same molecule, the GI50 at 72 h in data set [3] was more than 10 µM.
